These are literature values, as cited in patent US8871277B2, “Particulate wood preservative and method for producing the same” (Osmose, Inc., priority 2003, dated 2014).

For data set [1] the following is noted: solubility product constant.
For data set [2] the following is noted: Synthetic Precipitation Leaching Procedure.

Like-named read-outs stand apart in the source and are kept apart here.

With copper sulfide, the Ksp in data set [1] was 6 E−36.

Regarding `[Cu]` [copper], the solubility of copper reads like this: (pH 4) 640 ppm; (pH 7) 2 ppm; (pH 10) “about 0.01 ppm”.

Take copper 8-quinolinolate: the Ksp in data set [1] is reported as 2 E−30.

As to copper citrate, the “copper in leachate from treated wood” value in data set [2] was 62 mg copper per liter.
